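Cultured in 96-well plates, cells were exposed to test compound for 48 hours across five concentrations. At the GI50, growth is halved. TGI marks complete inhibition of growth.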
What was measured:
Test in all cases: inhibition of tumour cell growth, NCI panel, 48 h
[1] = system: SK-MEL-2 melanoma
[2] = system: COLO 205 colon
[3] = system: SK-MEL-28 melanoma
[4] = system: NCI/ADR-RES ovarian
[5] = system: HCT-15 colon
[6] = system: OVCAR-5 ovarian
[7] = system: IGROV1 ovarian
[8] = system: SF-268 CNS
[9] = system: HT29 colon
[10] = system: M14 melanoma

Compound: O=C(NC1CCN(Cc2ccccc2)CC1)c1cc(C(=O)NC2CCN(Cc3ccccc3)CC2)cc(C(=O)NC2CCN(Cc3ccccc3)CC2)c1
- GI50 [1]: 9.02 µM
- TGI [1]: 16.9 µM
- GI50 [2]: 3.62 µM
- TGI [2]: 10.6 µM
- GI50 [3]: 2.81 µM
- TGI [3]: 9.5 µM
- GI50 [4]: > 50 µM
- TGI [4]: > 50 µM
- GI50 [5]: > 50 µM
- TGI [5]: > 50 µM
- GI50 [6]: 6.83 µM
- TGI [6]: 13.7 µM
- GI50 [7]: 25.2 µM
- TGI [7]: > 50 µM
- GI50 [8]: 8.25 µM
- TGI [8]: 18.8 µM
- GI50 [9]: 1.3 µM
- TGI [9]: 4.17 µM

Compound: O=c1ccccc(-c2ccc(-c3ccco3)cc2)c1O
- GI50 [1]: 10.5 µM
- TGI [1]: 44.2 µM
- GI50 [10]: 0.665 µM
- TGI [10]: 6.11 µM
- GI50 [2]: 3.1 µM
- TGI [2]: 49.8 µM
- GI50 [3]: 0.79 µM
- TGI [3]: 17.8 µM
- GI50 [4]: 0.388 µM
- TGI [4]: 4.65 µM
- GI50 [5]: 0.373 µM
- TGI [5]: 41.2 µM
- GI50 [6]: 2.79 µM
- TGI [6]: 42 µM
- GI50 [7]: 0.633 µM
- TGI [7]: 73.8 µM
- GI50 [8]: 0.761 µM
- TGI [8]: > 100 µM
- GI50 [9]: 1.7 µM
- TGI [9]: 65.6 µM

Compound: CC(C)(C)N1CC(OC(N)=O)C1
- GI50 [1]: > 100 µM
- TGI [1]: > 100 µM
- GI50 [10]: > 100 µM
- TGI [10]: > 100 µM
- GI50 [2]: > 100 µM
- TGI [2]: > 100 µM
- GI50 [3]: > 100 µM
- TGI [3]: > 100 µM
- GI50 [4]: > 100 µM
- TGI [4]: > 100 µM
- GI50 [5]: > 100 µM
- TGI [5]: > 100 µM
- GI50 [6]: > 100 µM
- TGI [6]: > 100 µM
- GI50 [7]: > 100 µM
- TGI [7]: > 100 µM
- GI50 [8]: > 100 µM
- TGI [8]: > 100 µM
- GI50 [9]: > 100 µM
- TGI [9]: > 100 µM

Compound: N#Cc1nn(C2OC(COC(=O)c3ccccc3)C(OC(=O)c3ccccc3)C2OC(=O)c2ccccc2)c2nc[nH]c(=O)c12 (stereo unspecified)
- TGI [1]: > 100 µM
- TGI [10]: > 100 µM
- TGI [2]: > 100 µM
- TGI [3]: > 100 µM
- TGI [4]: > 100 µM
- TGI [5]: > 100 µM
- TGI [6]: > 100 µM
- TGI [7]: > 100 µM
- TGI [8]: > 100 µM
- TGI [9]: > 100 µM

Compound: Oc1cccc(Cn2c(-c3cccc(O)c3O)nc3ccccc32)c1O
- GI50 [1]: 42 µM
- TGI [1]: > 100 µM
- GI50 [10]: 3.3 µM
- TGI [10]: 15.5 µM
- GI50 [2]: 11.7 µM
- TGI [2]: 32.2 µM
- GI50 [3]: 10.9 µM
- TGI [3]: 27.6 µM
- GI50 [4]: 2.34 µM
- TGI [4]: 8.69 µM
- GI50 [5]: 2.08 µM
- TGI [5]: 14.9 µM
- GI50 [6]: 10.9 µM
- TGI [6]: 48.1 µM
- GI50 [7]: 34 µM
- TGI [7]: > 100 µM
- GI50 [8]: 4.74 µM
- TGI [8]: 28.7 µM
- GI50 [9]: 15.5 µM
- TGI [9]: > 100 µM

Compound: NC1=NC(c2ccccc2)CC(c2cc(Cl)cc(Br)c2O)=N1 (stereo unspecified)
- TGI [1]: 18.6 µM
- TGI [10]: 28.7 µM
- TGI [2]: 25.6 µM
- TGI [3]: 28.9 µM
- TGI [4]: 29.9 µM
- TGI [5]: 31.1 µM
- TGI [6]: 34.4 µM
- TGI [7]: 30.8 µM
- TGI [8]: 26.9 µM
- TGI [9]: 27 µM

Compound: O=C1/C(=C/c2ccccc2)CN(CCC(=O)N2C/C(=C\c3ccccc3)C(=O)/C(=C/c3ccccc3)C2)C/C1=C\c1ccccc1
- GI50 [1]: 17.5 µM
- TGI [1]: 38.1 µM
- GI50 [10]: 4.13 µM
- TGI [10]: > 77.9 µM
- GI50 [2]: 12.4 µM
- TGI [2]: > 67.5 µM
- GI50 [3]: 23.4 µM
- TGI [3]: 74.5 µM
- GI50 [4]: 12.1 µM
- TGI [4]: > 76 µM
- GI50 [5]: 0.906 µM
- TGI [5]: 45.1 µM
- GI50 [6]: 33.1 µM
- TGI [6]: > 91.3 µM
- GI50 [7]: 5.19 µM
- TGI [7]: 21.9 µM
- GI50 [8]: 12.2 µM
- TGI [8]: > 100 µM
- GI50 [9]: 0.635 µM
- TGI [9]: > 55.9 µM

Compound: O=C(O[C@H]1CN[C@H](C#Cc2cc3ncnc(Nc4ccc(OCc5cccc(F)c5)c(Cl)c4)c3s2)C1)N1CCOCC1
- GI50 [1]: 7.4 µM
- TGI [1]: 18.7 µM
- GI50 [10]: 12.6 µM
- TGI [10]: > 25 µM
- GI50 [2]: 5.32 µM
- TGI [2]: 11.1 µM
- GI50 [3]: 12.4 µM
- TGI [3]: > 25 µM
- GI50 [4]: 6.3 µM
- TGI [4]: > 25 µM
- GI50 [5]: 8.09 µM
- TGI [5]: > 25 µM
- GI50 [6]: 10.5 µM
- TGI [6]: > 25 µM
- GI50 [7]: 2.69 µM
- TGI [7]: > 25 µM
- GI50 [8]: 5.81 µM
- TGI [8]: > 25 µM
- GI50 [9]: 5.7 µM
- TGI [9]: 11.4 µM

Compound: CC1(C)CCC2(C(=O)O)CC[C@]3(C)C(=CCC4C5(C)CC[C@H](OC6OC(C(=O)O)C(O)C(OC7OC(CO)C(O)C(O)C7O)C6OC6OC(CO)C(O)C(O)C6O)C(C)(C)C5CCC43C)C2C1 (stereo partly specified)
- GI50 [1]: > 100 µM
- TGI [1]: > 100 µM
- GI50 [10]: 79.9 µM
- TGI [10]: > 100 µM
- GI50 [2]: > 100 µM
- TGI [2]: > 100 µM
- GI50 [4]: > 100 µM
- TGI [4]: > 100 µM
- GI50 [5]: 94.6 µM
- TGI [5]: > 100 µM
- GI50 [6]: > 100 µM
- TGI [6]: > 100 µM
- GI50 [7]: > 100 µM
- TGI [7]: > 100 µM
- GI50 [8]: > 100 µM
- TGI [8]: > 100 µM
- GI50 [9]: 40.9 µM
- TGI [9]: > 100 µM

Compound: COc1ccccc1N1CCN(C(=O)c2ccc(NS(=O)(=O)c3cccc4cccnc34)cc2)CC1
- GI50 [1]: > 100 µM
- TGI [1]: > 100 µM
- GI50 [10]: > 100 µM
- TGI [10]: > 100 µM
- GI50 [2]: > 100 µM
- TGI [2]: > 100 µM
- GI50 [3]: > 100 µM
- TGI [3]: > 100 µM
- GI50 [4]: > 100 µM
- TGI [4]: > 100 µM
- GI50 [5]: > 100 µM
- TGI [5]: > 100 µM
- GI50 [6]: > 100 µM
- TGI [6]: > 100 µM
- GI50 [7]: > 78.4 µM
- TGI [7]: > 100 µM
- GI50 [8]: > 48.3 µM
- TGI [8]: > 100 µM
- GI50 [9]: > 100 µM
- TGI [9]: > 100 µM

Compound: COc1ccc(-c2nc(N)c3ncn(C4OC(CO)C(O)C4O)c3n2)cc1 (stereo unspecified)
- TGI [1]: > 100 µM
- TGI [10]: > 100 µM
- TGI [2]: > 100 µM
- TGI [3]: > 100 µM
- TGI [4]: > 100 µM
- TGI [5]: > 100 µM
- TGI [6]: > 100 µM
- TGI [7]: > 100 µM
- TGI [8]: > 100 µM
- TGI [9]: > 100 µM

Compound: C[C@@H](Oc1cc(NS(=O)(=O)N2CCC2)nc(SCc2cccc(F)c2F)n1)[C@@H](O)CO
- GI50 [1]: > 100 µM
- TGI [1]: > 100 µM
- GI50 [10]: > 100 µM
- TGI [10]: > 100 µM
- GI50 [2]: > 100 µM
- TGI [2]: > 100 µM
- GI50 [3]: > 100 µM
- TGI [3]: > 100 µM
- GI50 [4]: > 100 µM
- TGI [4]: > 100 µM
- GI50 [5]: > 100 µM
- TGI [5]: > 100 µM
- GI50 [6]: > 100 µM
- TGI [6]: > 100 µM
- GI50 [7]: > 100 µM
- TGI [7]: > 100 µM
- GI50 [8]: > 100 µM
- TGI [8]: > 100 µM
- GI50 [9]: > 100 µM
- TGI [9]: > 100 µM

Compound: O=C1/C(=C/c2ccccc2Br)COc2ccc(O)c(O)c21
- GI50 [1]: 1.97 µM
- TGI [1]: 4.82 µM
- GI50 [10]: 1.53 µM
- TGI [10]: 4.06 µM
- GI50 [2]: 1.96 µM
- TGI [2]: 3.95 µM
- GI50 [3]: 1.94 µM
- TGI [3]: 4.42 µM
- GI50 [4]: 1.88 µM
- TGI [4]: 11.6 µM
- GI50 [5]: 0.557 µM
- TGI [5]: 3.12 µM
- GI50 [6]: 2.15 µM
- TGI [6]: 4.39 µM
- GI50 [7]: 0.742 µM
- TGI [7]: 4.29 µM
- GI50 [8]: 1.6 µM
- TGI [8]: 4.23 µM
- GI50 [9]: 3.37 µM
- TGI [9]: 10.4 µM

Source: PubChem BioAssay (NCI)
